Key:
[1] = Solubility of diethylborylated sugars and polysaccharides; format: physicochemical
[2] = Thermal stability (vacuum distillation / decomposition on heating); format: physicochemical

Row | solubility in hydrocarbons [1] | stability on distillation under high vacuum ([2]; high vacuum, 136° C.) | stability on vacuum distillation [2] | SMILES | solubility in aliphatic and aromatic hydrocarbons and in carbon tetrachloride ([1]; aliphatic and aromatic hydrocarbons and carbon tetrachloride) | Decomposition of the compound begins at ([2]; with evolution of triethyl borane) [°C]
1 | very readily soluble | without decomposition | without decomposition | CCB(CC)OC[C@H]1OC(OB(CC)CC)[C@H](OB(CC)CC)[C@@H](OB(CC)CC)[C@@H]1OB(CC)CC (single isomer, unassigned) [1,2,3,4,5-Pentakis-diethyl-boryl-D(+)-glucose] | – | –
2 | very readily soluble | – | without decomposition | CCB(CC)OC[C@H]1O[C@H](OC)[C@H](OB(CC)CC)[C@@H](OB(CC)CC)[C@@H]1OB(CC)CC [2,3,4,6-tetrakis(diethylboryl)-α-methyl-D-(+)-glucoside] | – | –
3 | very readily soluble | – | without decomposition | CCB(CC)OC[C@H](OB(CC)CC)[C@H]1OC(=O)C(OB(CC)CC)=C1OB(CC)CC [2.3.5.6-Tetrakis-diethylboryl-L(+)-ascorbic acid] | – | –
4 | – | – | – | CCB(CC)OC[C@H]1O[C@@H]2O[C@H]3[C@H](OB(CC)CC)[C@@H](OB(CC)CC)[C@@H](O[C@H]4[C@H](OB(CC)CC)[C@@H](OB(CC)CC)[C@@H](O[C@H]5[C@H](OB(CC)CC)[C@@H](OB(CC)CC)[C@@H](O[C@H]6[C@H](OB(CC)CC)[C@@H](OB(CC)CC)[C@@H](O[C@H]7[C@H](OB(CC)CC)[C@@H](OB(CC)CC)[C@@H](O[C@H]8[C@H](OB(CC)CC)[C@@H](OB(CC)CC)[C@@H](O[C@H]1[C@H](OB(CC)CC)[C@H]2OB(CC)CC)O[C@@H]8COB(CC)CC)O[C@@H]7COB(CC)CC)O[C@@H]6COB(CC)CC)O[C@@H]5COB(CC)CC)O[C@@H]4COB(CC)CC)O[C@@H]3COB(CC)CC [(I), Per-O-diethylboryl-cyclohepta-amylose] | soluble | 141

— US4005132A, “Process for reacting trialkyl boranes with compounds containing protons” (Studiengesellschaft Kohle m.b.H., priority 1971, dated 1977)
